Measured values as given in patent US20210301315A1, “METHODS FOR TREATING POLYMICROBIAL INFECTIONS” (priority 2017, published 2021).
“Also recorded” adds a separate entry of the source.

How the values were obtained:
[1] = system: E. coli and P. mirabilis; assay: P-AST species-pair interaction on antibiotic resistance (logistic regression, HSAP/UP); type: cell-based, Escherichia coli; Proteus mirabilis; details: E. coli and P. mirabilis together v. expected from each species alone (HSAP/UP)
Description: (§1) The Pooled Antibiotic Sensitivity Test (P-AST) is permitting the organisms identified to grow in the presence of antibiotics and measuring the minimum concentration of antibiotic to inhibit growth. Antibiotic susceptibility testing is performed when at least a single organism within a pool of organisms reaches a certain threshold, (e.g., at least 3,000 cells/ml, at least 5,000 cells/ml, at least 10,000 cells/ml, etc.) and can grow in the presence of the antibiotic in the assay within the time of testing. (Note: 10,000 cells/ml is equivalent to 10,000 CFU/ml.) The present invention is not limited to a 10,000 cells/mL threshold. These pools of organism(s) are inoculated into growth medium then placed onto an antibiotic laden “spec plate” that is then incubated and analyzed for growth. The breakpoints are derived from the CLSI breakpoints.
(§2) P-AST was performed by aliquoting 1 mL of patient urine specimen into a 1.7 mL microcentrifuge tube. After centrifugation, the supernatant was aspirated and discarded, leaving approximately 100 or 50 μL (minimum volume left above pellet created from centrifugation) of patient sample in the microcentrifuge tube. One mL of Mueller Hinton Growth Media was then aliquoted into the patient sample in the microcentrifuge tube and the tubes were incubated at 35° C. in a non-CO2 incubator for 6 hours. Non-inoculated liquid MH-media is incubated as the negative control to confirm the media used is not contaminated. Those samples that reached a minimum threshold of 10,000 cells/mL were then diluted by aliquoting 0.5 mL of sample into a 50 mL conical tube containing Mueller Hinton Growth Media (in this example, the dilution was 1:60, e.g., 500 μL was added to 29.5 mL). 96-well plates pre-loaded with antibiotics were then inoculated with diluted samples and incubated along with control plates for 12-16 hours at 35° C. in a single layer. Optical density of samples was then read on a DensiCHEK plate reader. The DensiCHEK instrument is used to measure the concentration of turbid samples considered positive because PCR-ID result was >=10,000 cells/mL. The turbid samples were diluted/normalized to the same concentration and then added to a volume of liquid, e.g., 29.5 mL of liquid MH-media. A spectrophotometer (plate reader) is used to measure optical density of the samples in wells of antibiotics and inoculum in order to determine if there is growth in a well. The present invention is not limited to a concentration of 10,000 cells/mL.
(§3) Interactions between pairs of bacterial species were investigated using a logistic regression model to predict resistance in the presence of specific bacterial species. Bacterial species that tested positive in at least 30 samples were considered in the regression model: these 16 species were A. schaalii, A. urinae, A. omnicolens, CoNS, C. riegelii, E. faecalis, E. coli, K. oxytoca, K. pneumoniae, M. morganii, P. mirabilis, P. aeruginosa, S. aureus, S. agalactiae, U. urealyticum, VGS. Backward stepwise model selection was performed on the model with all main effects and all pairwise interactions using an enter significance level of α=0.10 and an exit significance level of α=0.05 to obtain the best fitting model. This model was used to predict resistance rates when a specific organism was present or when a specific pair of organisms were present.
(§4) Using the logistic regression model described above, the resistance rate for a pair of species was compared to the resistance rates for each species alone. […]

[2] = system: bacterial organisms present in patient urine sample; assay: Antibiotic Resistance (ABR) assay utilizing liquid growth medium; type: cell-based; details: liquid medium
Description: Urine samples suitable for processing with this assay are collected, transported, and stored using BD Vacutainer tubes or other suitable leak-proof sterile containers. Urine samples may be held at room temperature for 48 hours before test results are compromised.
Antibiotic stocks are stored at 2-8° C. and protected from direct sunlight. Prepared antibiotic stock solutions were aliquoted into a 96-deep well plate (ThermoFisher Scientific) to form a 50× Antibiotic Source Plate and then diluted 1:5 to form a 10× Antibiotic Source Plate, as shown in FIG. 12 where each well is identified by antibiotic name and concentration (μg/mL; 10× final concentration). […] One well was assigned sodium azide to ensure no bacterial growth would be observed in that well.
Twenty microliters of each antibiotic solution were aliquoted into the pre-determined wells of a 96-well microplate (VIS 96/F-PS, Eppendorf) from the 10× Antibiotic Source Plate to create ABR testing plates for inoculation. These ABR testing plates were allowed to sit for up to 24 hours before use at 2-8° C. in the dark.
At the time of testing, urine samples were centrifuged to concentrate any bacterial cells and then mixed with liquid Mueller-Hinton medium and incubated for 6-16 hours at 37° C. After this initial incubation, the sample is diluted to 0.5-0.6 McF in saline and then 500 μl of that suspension was added to […] of Mueller-Hinton medium. One-hundred and eighty microliters of the diluted sample is then aliquoted to each well of the ABR microplate already containing 10× antibiotic solution, bringing all of the antibiotics to the desired final concentration. The plate is then sealed and incubated for 12-16 hours at 37° C.
After incubation, the plate was removed from the incubator and carefully uncovered and the OD600 was determined for each appropriate well by spectrophotometer. Five separate measurements were taken of each well on a plate and the mean OD600 measurement calculated for each well.
Controls are depicted in Table 10.
The raw data was then “blanked” using the measurement obtained from the Na-Azide well, as depicted in Table 14.
(§5) To determine whether bacterial organisms present in the patient samples were resistant or sensitive to a particular antibiotic at a certain concentration, blanked OD readings were compared to a threshold OD600 of 0.065 (Table 15). An OD measurement greater than or equal to this threshold was designated Resistant (R) meaning bacterial organisms present in patient sample were resistant to that particular antibiotic at that certain concentration. Any OD measurement less than this threshold was designated Sensitive (S) meaning bacterial organisms present in patient sample were sensitive to that particular antibiotic at that certain concentration.

[3] = system: E. coli and S. agalactiae; assay: P-AST species-pair interaction on antibiotic resistance (logistic regression, HSAP/UP); type: cell-based, Escherichia coli; Streptococcus agalactiae; details: E. coli and S. agalactiae together v. expected from each species alone (HSAP/UP)
Description: as §1, §2, §3, §4

[4] = system: bacterial organisms present in patient urine sample; assay: Antibiotic Resistance (ABR) assay utilizing agar-containing medium; type: cell-based
Description: Urine samples suitable for processing with this assay are collected, transported, and stored using BD Vacutainer (gray top) tubes or other suitable leak-proof sterile container. Urine samples may be held at room temperature for 48 hours before test results are compromised.
Antibiotic stocks are stored at 2-8° C. and protected from direct sunlight. Prepared antibiotic stock solutions were aliquoted into a 96-deep well plate (Thermo Fisher Scientific) to form an Antibiotic Source Plate, as shown in FIG. 11 and identified by antibiotic name and concentration (μg/mL; 10× final concentration). […] One well was designated AB-blend which contained a combination of antibiotics to ensure there was no bacterial growth.
One hundred microliters of Mueller-Hinton agar medium was aliquoted into each appropriate well position of a 96-well microplate (VIS 96/F-PS, Eppendorf). The medium was allowed to solidify at room temperature for at least 10 min.
The antibiotics (10 μL) at various concentrations were then aliquoted into desired wells from the Antibiotic Source Plate. After the antibiotics were introduced to the agar medium, the ABR microplates were allowed to sit for at least 1 hr before use. If long-term storage is required, ABR microplates containing antibiotic-infuse agar are stored at 2-8° C. in the dark.
At the time of testing, urine samples were diluted 1:20 in sterile saline and vortexed. Each patient sample utilized a single ABR microplate. Five microliters of diluted patient sample were added to each well of the room temperature microplate, the plate was sealed and incubated for 16-18 hr at 37° C.
After incubation, the plate was removed from the incubator and carefully uncovered. Two-hundred microliters of deionized water were added to each well to suspend cells present above the agar and the plates incubated at room temperature for 30 min. After 30 min, 100 μl from each well was removed to a new plate and the OD600 was determined in a spectrophotometer. Five separate reads were taken of each plate and a mean OD600 measurement calculated.
Controls include: No-antibiotic control, Negative control plate, and AB-Blend. No antibiotic control: Any well containing medium that is not infused with antibiotics to ensure viability of bacterial cells present in patient urine samples and included in each plate. […] Negative control plate: Microplate containing antibiotic-infused agar medium without addition of patient sample or cultured bacterial organisms to ensure non-contamination of reagents. AB-Blend: One or more wells containing a combination of antibiotics to ensure there is no bacterial growth.
The raw data was then “blanked” using the measurement obtained from the AB-Blend well, as depicted in Table 5.
as §5, with “0.025” for “0.065”, “6). Any” for “15). An”

SMILES | change in antibiotic resistance of the pair of organisms [1] | Blanked (OD600 minus Na-Azide well) ([2]; antibiotic 4 μg/mL) | Mean (OD600) ([2]; antibiotic 4 μg/mL) | Blanked (OD600 minus Na-Azide well) ([2]; antibiotic 8 μg/mL) | Mean (OD600) ([2]; antibiotic 8 μg/mL) | Blanked (OD600 minus Na-Azide well) ([2]; antibiotic 16 μg/mL) | Mean (OD600) ([2]; antibiotic 16 μg/mL) | Blanked (OD600 minus Na-Azide well) ([2]; antibiotic 32 μg/mL) | Mean (OD600) ([2]; antibiotic 32 μg/mL) | change in antibiotic resistance of the pair of organisms [3] | Blanked (OD600 minus Na-Azide well) ([2]; antibiotic 2 μg/mL) | Mean (OD600) ([2]; antibiotic 2 μg/mL) | Blanked (OD600 minus AB-Blend well) ([4]; antibiotic 32 μg/mL) | Mean (OD600) ([4]; antibiotic 32 μg/mL) | Blanked (OD600 minus AB-Blend well) ([4]; antibiotic 64 μg/mL) | Mean (OD600) ([4]; antibiotic 64 μg/mL)
CC(C)(O/N=C(\C(=O)N[C@@H]1C(=O)N2C(C(=O)[O-])=C(C[n+]3ccccc3)CS[C@H]12)c1csc(N)n1)C(=O)O [Ceftazidime, ceftazidime] | decrease in resistance; also recorded: decreased odds of resistance | 0.2000 | 0.2457 | 0.2150 | 0.2607 | 0.2016 | 0.2473 | 0.1980 | 0.2437 | decrease in resistance; also recorded: decreased odds of resistance | – | – | – | – | – | –
Cc1nnc(SCC2=C(C(=O)O)N3C(=O)[C@@H](NC(=O)Cn4cnnn4)[C@H]3SC2)s1 [Cefazolin, cefazolin] | decrease in resistance; also recorded: decreased odds of resistance | – | – | 0.1633 | 0.2090 | 0.1011 | 0.1468 | 0.0113 | 0.0570 | – | 0.1882 | 0.2339 | – | – | – | –
O=C1CN(/N=C/c2ccc([N+](=O)[O-])o2)C(=O)N1 [Nitrofurantoin, nitrofurantoin] | – | – | – | – | – | – | – | 0.0095 | 0.0552 | – | – | – | 0.0003 | 0.0387 | 0.0002 | 0.0386
